Counter-ions that a name gives are not always drawn.
In the case of Cc1cc(C)c(N2CCCc3c2nn(C)c3CN2CCc3ccccc3C2)c(C)c1 (as salt: hydrochloride) [Compound 7-5, 2-[2-Methyl-7-(2,4,6-trimethyl-phenyl)-4,5,6,7-tetrahydro-2H-pyrazolo[3,4-b]pyridin-3-ylmethyl]-1,2,3,4-tetetrahydroisoquinolinedihydrochloride], the melting point is reported as 236.4 to 241 °C.
Cc1cc(C)c(N2CCCc3c2nn(C)c3Br)c(Cl)c1 [Compound 1-1, 3-Bromo-7-(2-chloro-4,6-dimethylphenyl)-2-methyl-4,5,6,7-tetrahydro-2H-pyrazolo[3,4-b]pyridine] gave a melting point of 106 to 107 °C.
Compound Cc1cc(C)c(N2CCCc3c2nn(C)c3Br)c(C)c1 [Compound 1-3, 3-Bromo-2-methyl-7-(2,4,6-trimethyl-phenyl)-4,5,6,7-tetrahydro-2H-pyrazolo[3,4-b]pyridine] has a melting point of 94.6 to 97.9 °C.
Cn1nc2c(c1Br)CCCN2c1c(Cl)cc(Cl)cc1Cl [Compound 1-6, 3-Bromo-2-methyl-7-(2,4,6-trichloro-phenyl)-4,5,6,7-tetrahydro-2H-pyrazolo[3,4-b]pyridine] showed a melting point of 100 to 101 °C.
With COc1ccc(N2CCCc3c2nn(C)c3Br)c(C)c1 [Compound 1-7, 3-Bromo-2-methyl-7-(4-methoxy 2-methyl-phenyl)-4,5,6,7-tetrahydro-2H-pyrazolo[3,4-b]pyridine] the melting point was 101.7 to 104.1 °C.
With Cn1nc2c(c1Br)CCCN2c1ccc(Cl)cc1 [Compound 1-8, 3-Bromo-2-methyl-7-(4-chloro-phenyl)-4,5,6,7-tetrahydro-2H-pyrazolo[3,4-b]pyridine] the melting point was 113.8 to 114.9 °C.
For Cn1nc2c(c1Cl)CCCN2c1ccc(Cl)cc1 [Compound 1-10, 3-chloro-7-(4-chloro-phenyl)-2-methyl-4,5,6,7-tetrahydro-2H-pyrazolo [3,4-b]pyridine], the melting point was 96.5 to 97.5 °C.
With Cc1cc(C)c(N2CCCc3c2nn(C)c3Cl)c(C)c1 [Compound 1-11, 3-chloro-7-(2,4,6-trimethyl-phenyl)-2-methyl-4,5,6,7-tetrahydro-2H-pyrazolo[3,4-b]pyridine] the melting point was 83 to 86 °C.
Compound Cc1cc(C)c(N2CCCc3c2[nH]n(C)c3=O)c(Cl)c1 [Compound 1-15, 7-(2-Chloro-4,6-dimethyl-phenyl)-2-methyl-1,2,4,5,6,7-hexahydro-pyrazolo[3,4-b]pyridin-3-one] has a melting point of 103 to 109 °C.
Cn1[nH]c2c(c1=O)CCCN2c1ccc(Cl)cc1Cl [Compound 1-16, 7-(2,4-dichloro-phenyl)-2-methyl-1,2,4,5,6,7-hexahydro-pyrazolo[3,4-b]pyridin-3-one] gave a melting point of 98 to 100.5 °C.
In the case of Cn1[nH]c2c(c1=O)CCCN2c1ccc(Cl)cc1 [Compound 1-17, 7-(4-chloro-phenyl)-2-methyl-1,2,4,5,6,7-hexahydro-pyrazolo[3,4-b]pyridin-3-one], the melting point is reported as 219.5 to 221.6 °C.
In the case of CCCC(O)(CCC)c1c2c(nn1C)N(c1c(C)cc(C)cc1Cl)CCC2 [Compound 2-1, 4-[7-(2-Chloro-4,6-dimethylphenyl)-2-methyl-4,5,6,7-tetrahydro-2H-pyrazolo[3,4-b]pyridin-3-yl]heptan-4-ol], the melting point is reported as 129 to 130 °C.
With CCCC(O)(CCC)c1c2c(nn1C)N(c1c(C)cc(C)cc1C)CCC2 [Compound 2-2, 4-[2-Methyl-7-(2,4,6-trimethylphenyl)-4,5,6,7-tetrahydro-2H-pyrazolo[3,4-b]pyridin-3-yl] heptan-4-ol] the melting point was 126 to 127.9 °C.
Compound CCCC(O)(c1cccs1)c1c2c(nn1C)N(c1c(C)cc(C)cc1C)CCC2 (centres unmarked) [Compound 2-3, 1-[2-Methyl-7-(2,4,6-trimethylphenyl)-4,5,6,7-tetrahydro-2H-pyrazolo[3,4-b]pyridin-3-yl]-1-thiophen-2-ylbutan-1-ol] has a melting point of 175.9 to 178.4 °C.
In the case of CCCC(O)(CCC)c1c2c(nn1C)N(c1c(C)cc(C)cc1C)CCCC2 [Compound 2-4, 4-[2-Methyl-8-(2,4,6-trimethylphenyl)-2,4,5,6,7,8-hexahydro-1,2,8-triazaazulen-3-yl]heptan-4-ol], the melting point is reported as 87 to 91.1 °C.
CCCC(O)(CCC)c1c2c(nn1C)N(c1ccc(Cl)cc1Cl)CCC2 [Compound 2-5, 4-[7-(2,4-Dichlorophenyl)-2-methyl-4,5,6,7-tetrahydro-2H-pyrazolo [3,4-b]pyridin-3-yl]heptan-4-ol] showed a melting point of 121.4 to 122.6 °C.
Work on COCC(O)(COC)c1c2c(nn1C)N(c1c(C)cc(C)cc1C)CCC2 [Compound 2-6, 1,3-Dimethoxy-2-[2-methyl-7-(2,4,6-trimethylphenyl)-4,5,6,7-tetrahydro-2H-pyrazolo[3,4-b]pyridin-3-yl]propan-2-ol] yielded a melting point of 120.3 to 121.8 °C.
COCCC(O)(COC)c1c2c(nn1C)N(c1c(C)cc(C)cc1C)CCC2 (centres unmarked) [Compound 2-7, 1,4-Dimethoxy-2-[2-methyl-7-(2,4,6-trimethylphenyl)-4,5,6,7-tetrahydro-2H-pyrazolo[3,4-b]pyridin-3-yl]butan-2-ol] gave a melting point of 107.9 to 110.9 °C.
With CCCC(O)(c1nccs1)c1c2c(nn1C)N(c1c(C)cc(C)cc1C)CCC2 (centres unmarked) [Compound 2-8, 1-[2-Methyl-7-(2,4,6-trimethylphenyl)-4,5,6,7-tetrahydro-2H-pyrazolo[3,4-b]pyridin-3-yl]-1-thiazol-2-ylbutan-1-ol] the melting point was 160.1 to 165.6 °C.
Work on Cc1cc(C)c(N2CCCc3c2nn(C)c3C(O)c2ccco2)c(C)c1 (centres unmarked) [Compound 2-9, Furan-2-yl[2-methyl-7-(2,4,6-trimethyl-phenyl)-4,5,6,7-tetrahydro-2H-pyrazolo[3,4-b]pyridin-3-yl]methanol] yielded a melting point of 163.1 to 174.4 °C.
With CCC(O)c1c2c(nn1C)N(c1c(C)cc(C)cc1C)CCC2 (centres unmarked) [Compound 2-10, 1-[2-Methyl-7-(2,4,6-trimethylphenyl)-4,5,6,7-tetrahydro-2H-pyrazolo[3,4-b]pyridin-3-yl]propan-1-ol] the melting point was 179.4 to 180.9 °C.
CCCC(O)(c1nccn1CC)c1c2c(nn1C)N(c1c(C)cc(C)cc1C)CCC2 (centres unmarked) [Compound 2-11, 1-(1-Ethyl-1H-imidazol-2-yl)-1-[2-methyl-7-(2,4,6-trimethylphenyl)-4,5,6,7-tetrahydro-2H-pyrazolo[3,4-b]pyridin-3-yl]butan-1-ol] showed a melting point of 94.9 to 100.9 °C.
Work on Cc1cc(C)c(N2CCCc3c2nn(C)c3C2(O)CCOCC2)c(C)c1 [Compound 2-12, 4-[2-Methyl-7-(2,4,6-trimethylphenyl)-4,5,6,7-tetrahydro-2H-pyrazolo[3,4-b]pyridin-3-yl]tetrahydropyran-4-ol] yielded a melting point of 193 to 195.1 °C.
Work on Cc1cc(C)c(N2CCCc3cn(C)nc32)c(Cl)c1 [Compound 2-13, 7-(2-Chloro-4,6-dimethylphenyl)-2-methyl-4,5,6,7-tetrahydro-2H-pyrazolo[3,4-b]pyridine] yielded a melting point of 97 to 98 °C.
CC(O)c1c2c(nn1C)N(c1ccc(Cl)cc1Cl)CCC2 (centres unmarked) [Compound 2-14, 1-[7-(2,4-Dichloro-phenyl)-2-methyl-4,5,6,7-tetrahydro-2H-pyrazolo[3,4-b]pyridin-3-yl]-ethanol] showed a melting point of 56.7 to 64 °C.
Compound Cc1cc(C)c(N2CCCc3c2nn(C)c3C(C)O)c(C)c1 (centres unmarked) [Compound 2-15, 1-[7-(2,4,6-trimethyl-phenyl)-2-methyl-4,5,6,7-tetrahydro-2H-pyrazolo[3,4-b]pyridin-3-yl]-ethanol] has a melting point of 178 to 179.6 °C.

Reference: US7432283B2, “Heterocyclic GABAA subtype selective receptor modulators” (Roche Palo Alto LLC, priority 2004, dated 2008)
